Data: patent publication US10077261B2, “Imidazolin-5-one derivative useful as FASN inhibitors for the treatment of cancer” (Janssen Pharmaceutica NV, priority 2012, dated 2018)

Tests used:
[1] = target: Fatty Acid Synthase Keto-reductase Domain (FASN KR) (Homo sapiens, UniProt P49327); assay: Fatty Acid Synthase keto-reductase domain (FASN KR) inhibition, NADPH oxidation at 340 nm
Experimental: After 20 minutes incubation at room temperature the plate was measured again (T2).
The decrease in absorbance was calculated as (Absorbance before incubation T1)−(Absorbance following incubation T2).
A plot of Controlmin versus test compound concentration was fitted to a 4-parameter logistic curve using a non-linear least squares regression method.

[2] = tested on: PC-3M-Luc-C6 prostate cells; assay: In vitro PC-3M-Luc-C6 prostate cell proliferation assay in lipid reduced medium; type: cell-based; conditions: 96 h, read-out: pIC50 PC-3M-Luc-C6 prostate cell (converted)
[3] = tested on: A2780 ovarian cells; assay: A2780 ovarian cell proliferation assay in lipid reduced medium, without palmitate (MTT); type: cell-based; conditions: Homo sapiens, A2780, 96 h; read-out: pIC50 A2780 Ovarian Cell, Without Palmitate (converted)
[4] = tested on: LNCaP-Vancouver prostate cells; assay: In vitro LNCaP Vancouver prostate cell proliferation assay in lipid reduced medium; type: cell-based; conditions: read-out: pIC50 LNCaP_Vancouver prostate cell (converted)
[5] = target: T1, hFASN enzyme (full length) (Homo sapiens, UniProt P49327); assay: Fatty Acid Synthase (FASN) inhibition scintillation proximity assay; type: biochemical; conditions: for inhibition at 10 µM: read-out: Human FASN % inhibition @ 10 μM, 10 μM test compound; for IC50: read-out: Human FASN pIC50 (converted)
T1 construct: 10 μL hFASN enzyme (full length, 300 ng, purified in house); made in house
T1 sequence (P49327 whole entry): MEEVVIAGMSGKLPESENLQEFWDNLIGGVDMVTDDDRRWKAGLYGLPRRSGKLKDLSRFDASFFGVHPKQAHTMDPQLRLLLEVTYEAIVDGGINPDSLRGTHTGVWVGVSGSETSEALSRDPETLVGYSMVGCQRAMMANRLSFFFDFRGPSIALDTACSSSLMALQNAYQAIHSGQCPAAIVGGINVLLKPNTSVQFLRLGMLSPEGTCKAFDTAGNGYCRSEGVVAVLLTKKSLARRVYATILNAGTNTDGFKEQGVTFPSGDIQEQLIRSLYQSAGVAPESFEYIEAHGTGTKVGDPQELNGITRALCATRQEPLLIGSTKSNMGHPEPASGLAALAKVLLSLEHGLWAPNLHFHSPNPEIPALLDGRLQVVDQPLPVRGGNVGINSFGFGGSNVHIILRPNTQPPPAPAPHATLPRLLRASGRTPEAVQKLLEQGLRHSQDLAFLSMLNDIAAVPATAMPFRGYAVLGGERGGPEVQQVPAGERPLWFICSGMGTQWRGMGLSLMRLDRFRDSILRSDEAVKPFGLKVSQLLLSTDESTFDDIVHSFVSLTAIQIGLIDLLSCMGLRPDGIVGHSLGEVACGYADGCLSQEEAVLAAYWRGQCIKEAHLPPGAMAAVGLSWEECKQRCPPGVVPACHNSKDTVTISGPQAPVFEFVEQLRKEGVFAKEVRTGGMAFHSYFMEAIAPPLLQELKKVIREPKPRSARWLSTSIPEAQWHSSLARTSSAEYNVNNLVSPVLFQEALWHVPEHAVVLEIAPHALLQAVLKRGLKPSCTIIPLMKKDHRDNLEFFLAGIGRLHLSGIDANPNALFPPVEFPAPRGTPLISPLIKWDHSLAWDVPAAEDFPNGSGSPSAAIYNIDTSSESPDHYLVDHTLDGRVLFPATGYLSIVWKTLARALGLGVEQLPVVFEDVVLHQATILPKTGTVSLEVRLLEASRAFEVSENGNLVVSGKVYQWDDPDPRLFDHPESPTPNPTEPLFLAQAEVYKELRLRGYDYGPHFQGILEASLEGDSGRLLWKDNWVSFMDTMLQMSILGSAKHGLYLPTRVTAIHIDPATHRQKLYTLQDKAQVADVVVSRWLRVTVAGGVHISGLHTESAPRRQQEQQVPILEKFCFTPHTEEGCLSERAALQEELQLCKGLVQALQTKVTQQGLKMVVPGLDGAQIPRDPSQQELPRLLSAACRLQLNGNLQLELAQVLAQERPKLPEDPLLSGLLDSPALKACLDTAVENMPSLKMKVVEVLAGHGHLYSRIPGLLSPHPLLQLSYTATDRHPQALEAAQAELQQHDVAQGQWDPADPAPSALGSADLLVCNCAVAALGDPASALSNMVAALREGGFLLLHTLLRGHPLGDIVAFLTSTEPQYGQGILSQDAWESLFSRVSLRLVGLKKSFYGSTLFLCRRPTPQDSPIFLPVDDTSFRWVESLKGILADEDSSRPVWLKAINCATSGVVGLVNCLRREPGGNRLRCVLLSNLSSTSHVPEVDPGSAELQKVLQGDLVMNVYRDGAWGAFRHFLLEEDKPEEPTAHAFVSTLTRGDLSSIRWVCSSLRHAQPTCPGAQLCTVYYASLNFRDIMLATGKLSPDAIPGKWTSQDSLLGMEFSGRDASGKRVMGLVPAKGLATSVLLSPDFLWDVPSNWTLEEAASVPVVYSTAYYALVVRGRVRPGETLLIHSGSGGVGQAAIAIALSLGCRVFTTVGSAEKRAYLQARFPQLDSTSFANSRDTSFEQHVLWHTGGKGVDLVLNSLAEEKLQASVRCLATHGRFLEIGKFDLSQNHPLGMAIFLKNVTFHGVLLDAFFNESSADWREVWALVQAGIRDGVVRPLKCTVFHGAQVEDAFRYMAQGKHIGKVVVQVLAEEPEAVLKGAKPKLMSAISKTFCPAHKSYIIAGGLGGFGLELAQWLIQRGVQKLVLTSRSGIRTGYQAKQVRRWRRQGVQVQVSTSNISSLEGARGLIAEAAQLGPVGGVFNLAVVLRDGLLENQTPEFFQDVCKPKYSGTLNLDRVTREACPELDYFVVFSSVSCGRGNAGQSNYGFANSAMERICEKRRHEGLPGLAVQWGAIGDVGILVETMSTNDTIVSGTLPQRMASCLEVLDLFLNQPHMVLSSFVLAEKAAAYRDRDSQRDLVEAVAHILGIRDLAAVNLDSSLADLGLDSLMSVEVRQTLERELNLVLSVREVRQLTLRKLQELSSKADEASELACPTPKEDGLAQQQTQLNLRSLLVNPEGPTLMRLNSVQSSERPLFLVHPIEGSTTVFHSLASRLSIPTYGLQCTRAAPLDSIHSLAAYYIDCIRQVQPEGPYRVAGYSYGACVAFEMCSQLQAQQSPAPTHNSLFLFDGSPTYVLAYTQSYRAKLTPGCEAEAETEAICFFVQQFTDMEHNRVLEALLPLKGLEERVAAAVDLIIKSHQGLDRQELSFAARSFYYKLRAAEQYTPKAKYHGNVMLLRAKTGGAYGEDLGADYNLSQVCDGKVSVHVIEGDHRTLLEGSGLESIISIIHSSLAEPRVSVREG
Summary of the method: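 Read-out relies on hydrophobic ³H-palmitate product, formed from ³H-acetyl-CoA and malonyl-CoA, binding streptavidin imaging beads, measured at 610±20 nm after at least 24 h. Full-length enzyme (300 ng) in phosphate buffer pH 7.5 with DTT; eight compound concentrations, 0.01–30 μM.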

[6] = tested on: A2780 ovarian cells; assay: A2780 ovarian cell proliferation assay in lipid reduced medium, with palmitate (MTT); type: cell-based; conditions: Homo sapiens, A2780, 96 h; read-out: pIC50 A2780 Ovarian Cell, With Palmitate (converted)
Summary of the method: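 In this palmitate-supplemented format, compound dilutions (30 μM down to 0.01 μM) are added to cells in lipid-reduced serum with 25 μM palmitate, 0.2% fatty-acid-free BSA and 0.25% ethanol. After four days (96 h) MTT absorbance at 544 nm is recorded and fitted by minimum sum of squares.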

Chain of Fatty Acid Synthase Keto-reductase Domain (FASN KR) (P49327 whole entry, the tested form may be a part): as the sequence (P49327 whole entry) above

Row | Structure (SMILES) | IC50 [1] [nM] | IC50 [2] [nM] | IC50 [3] [nM] | IC50 [4] [nM] | inhibition at 10 µM [5] [%] | IC50 [5] [nM] | IC50 [6] [µM]
1 | Cc1sc2ccc(-c3ccc(C4=NC5(CC5)C(=O)N4CC4CN(C(=O)C5CC5)C4)cc3)cc2c1C [compound 418, 6-{[1-(Cyclopropylcarbonyl)azetidin-3-yl]methyl}-5-[4-(2,3-dimethyl-1-benzothiophen-5-yl)phenyl]-4,6-diazaspiro[2.4]hept-4-en-7-one] | 302 | 1580 | ~2140 | ~2510 | 103 | 151 | > 10
2 | CC1(C(=O)N2CC(CN3C(=O)C4(CC4)N=C3c3ccc(-c4ccc5cc(C#N)ccc5c4)cc3F)C2)CC1 [compound 385, 6-(3-fluoro-4-(6-((1-(1-methylcyclopropanecarbonyl)azetidin-3-yl)methyl)-7-oxo-4,6-diazaspiro[2.4]hept-4-en-5-yl)phenyl)-2-naphthonitrile] | 43.7 | ~4.79 | ~3.63 | 18.6 | 103 | 22.9 | ~2.57
3 | O=C(C1CC1)N1CC(CN2C(=O)C3(CC3)N=C2c2ccc(-c3cc4ccccc4cn3)cc2)C1 [compound 531, 6-{[1-(Cyclopropylcarbonyl)azetidin-3-yl]methyl}-5-(4-isoquinolin-3-ylphenyl)-4,6-diazaspiro[2.4]hept-4-en-7-one] | 537 | 302 | 148 | 1350 | 96 | 170 | > 10
4 | Cc1cc(-c2ccc3[nH]ncc3c2)ccc1C1=NC2(CC2)C(=O)N1C[C@@H]1CCN(C(=O)C2CC2)C1 [compound 286, (R)-5-(4-(1H-indazol-5-yl)-2-methylphenyl)-6-((1-(cyclopropanecarbonyl)pyrrolidin-3-yl)methyl)-4,6-diazaspiro[2.4]hept-4-en-7-one] | 60.3 | 25.1 | ~21.4 | 123 | 103 | 43.7 | > 10
5 | N#Cc1cc2cc(-c3ccc(C4=NC5(CC5)C(=O)N4CC4CN(C(=O)C5CC5)C4)cc3)ccc2o1 [compound 475, 5-[4-(6-{[1-(Cyclopropylcarbonyl)azetidin-3-yl]methyl}-7-oxo-4,6-diazaspiro[2.4]hept-4-en-5-yl)phenyl]-1-benzofuran-2-carbonitrile] | 372 | 661 | 813 | 3310 | 93 | 166 | > 10
6 | O=C(N1CC[C@@H](CN2C(=O)C3(CC3)N=C2c2ccc(-c3ccc(Cl)cc3F)cc2)C1)C1(O)CC1 [compound 202, (R)-5-(4′-chloro-2′-fluoro[1,1′-biphenyl]-4-yl)-6-((1-(1-hydroxycyclopropanecarbonyl)pyrrolidin-3-yl)methyl)-4,6-diazaspiro[2.4]hept-4-en-7-one] | 74.1 | ~95.5 | 58.9 | 550 | 101 | 83.2 | > 10
7 | C=CC(=O)N1CCC2(CC1)N=C(c1ccc(-c3ccc4ccoc4c3)cc1)N(C[C@@H]1CCN(C(=O)C3CC3)C1)C2=O [compound 741, 8-Acryloyl-2-[4-(1-benzofuran-6-yl)phenyl]-3-{[(3R)-1-(cyclopropylcarbonyl)pyrrolidin-3-yl]methyl}-1,3,8-triazaspiro[4.5]dec-1-en-4-one] | 537 | ~1620 | ~2510 | 2750 | 102 | 158 | > 10
8 | Cc1cc(-c2ccc3c(cnn3C)c2)ccc1C1=NC2(CC2)C(=O)N1CC1CN(C(=O)C2(C)COC2)C1 [compound 496, 5-[2-Methyl-4-(1-methyl-1H-indazol-5-yl)phenyl]-6-({1-[(3-methyloxetan-3-yl)carbonyl]azetidin-3-yl}methyl)-4,6-diazaspiro[2.4]hept-4-en-7-one] | 575 | ~355 | 209 | 1740 | 94 | 302 | > 10
9 | N#Cc1ccc2ccc(-c3ccc(C4=NC5(CC5)C(=O)N4CC4CN(C(=O)C5(O)CC5)C4)c(F)c3)cc2c1 [compound 621, 7-{3-Fluoro-4-[6-({1-[(1-hydroxycyclopropyl)carbonyl]azetidin-3-yl}methyl)-7-oxo-4,6-diazaspiro[2.4]hept-4-en-5-yl]phenyl}naphthalene-2-carbonitrile] | 513 | 437 | 708 | 2140 | 92 | 617 | 6.17
10 | COCc1nn(C)c2cc(-c3ccc(C4=NC5(CC5)C(=O)N4C[C@@H]4CCN(C(=O)C5CC5)C4)cc3)ccc12 [compound 484, 6-{[(3R)-1-(Cyclopropylcarbonyl)pyrrolidin-3-yl]methyl}-5-{4-[3-(methoxymethyl)-1-methyl-1H-indazol-6-yl]phenyl}-4,6-diazaspiro[2.4]hept-4-en-7-one] | 257 | 151 | 95.5 | 550 | 99 | 151 | > 10
11 | O=C(N1CC(CN2C(=O)C3(CC3)N=C2c2ccc(-c3ccc4cc(F)ccc4c3)cc2F)C1)C1(O)CC1 [compound 365, 5-(2-fluoro-4-(6-fluoronaphthalen-2-yl)phenyl)-6-((1-(1-hydroxycyclopropanecarbonyl)azetidin-3-yl)methyl)-4,6-diazaspiro[2.4]hept-4-en-7-one] | 53.7 | 7.59 | 6.46 | 56.2 | 97 | 23.4 | ~10
12 | N#Cc1cc2cc(-c3ccc(C4=NC5(CC5)C(=O)N4C[C@@H]4CCN(C(=O)C5CC5)C4)cc3F)ccc2o1 [compound 463, 5-[4-(6-{[(3R)-1-(Cyclopropylcarbonyl)pyrrolidin-3-yl]methyl}-7-oxo-4,6-diazaspiro[2.4]hept-4-en-5-yl)-2-fluorophenyl]-1-benzofuran-2-carbonitrile] | 977 | 1910 | ~3800 | 7240 | 93 | 224 | > 10
13 | N#Cc1ccc2cc(-c3ccc(C4=NC5(CC5)C(=O)N4CC4CN(C(=O)C5(O)CC5)C4)c(F)c3)ccc2c1 [compound 872, 6-(3-fluoro-4-(6-((1-(1-hydroxycyclopropanecarbonyl)azetidin-3-yl)methyl)-7-oxo-4,6-diazaspiro[2.4]hept-4-en-5-yl)phenyl)-2-naphthonitrile] | 42.7 | 4.79 | 2.69 | 24 | 99 | 23.4 | ~7.94
14 | O=C(C1CC1)N1CC[C@@H](CN2C(=O)C3(CC3)N=C2c2ccc(-c3cccc4ncccc34)cc2F)C1 [compound 250, (R)-6-((1-(cyclopropanecarbonyl)pyrrolidin-3-yl)methyl)-5-(2-fluoro-4-(quinolin-5-yl)phenyl)-4,6-diazaspiro[2.4]hept-4-en-7-one] | 69.2 | 234 | 302 | 692 | 100 | 49 | > 10
15 | O=C(C1CC1)N1CC[C@@H](CN2C(=O)C3(CC3)N=C2c2ccc(-c3ccc4occc4c3)cc2F)C1 [compound 240, (R)-5-(4-(benzofuran-5-yl)-2-fluorophenyl)-6-((1-(cyclopropanecarbonyl)pyrrolidin-3-yl)methyl)-4,6-diazaspiro[2.4]hept-4-en-7-one] | 26.3 | ~166 | 200 | 537 | 101 | 12.3 | > 6.17
16 | Cn1ncc2cc(-c3ccc(C4=NC5(CC5)C(=O)N4C[C@@H]4CCN(C(=O)C5(C)CC5)C4)c(F)c3)ccc21 [compound 361, (R)-5-(2-fluoro-4-(1-methyl-1H-indazol-5-yl)phenyl)-6-((1-(1-methylcyclopropanecarbonyl)pyrrolidin-3-yl)methyl)-4,6-diazaspiro[2.4]hept-4-en-7-one] | 45.7 | 3.24 | ~3.63 | ~12.9 | 103 | 39.8 | > 10
17 | COC(=O)N1CC2(C1)N=C(c1ccc(-c3ccc4cccnc4c3)cc1)N(C[C@@H]1CCN(C(=O)C(C)O)C1)C2=O (stereo partly drawn) [compound 729, Methyl 7-{[(3R)-1-(2-hydroxypropanoyl)pyrrolidin-3-yl]methyl}-8-oxo-6-(4-quinolin-7-ylphenyl)-2,5,7-triazaspiro[3.4]oct-5-ene-2-carboxylate] | 813 | 1450 | 1290 | 8710 | 95 | 309 | > 10
